From patent US20240043429A1, “TRIAZOLO PYRAZINE COMPOUND AND USE THEREOF” (TECHNODERMA MEDICINES, INC., priority 2020, published 2024)
pIC50: −log10 of the molar value.

Assays:
Format in all cases: biochemical
Tyk2 = Tyk2 (Homo sapiens, UniProt P29597); test: Enzyme activity inhibition of JAK kinases (ULight-JAK substrate, Eu-antibody): Tyk2; conditions: ATP 10 μM, 1 hour reaction at room temperature; read-out: Tyk2 half-maximum inhibitory concentration
Experimental: (§1) 1× test buffer: The test buffer was prepared, and diluted with deionized water (deionized water: test buffer=9:1) to obtain the 1×test buffer. 4× kinase solution: JAK kinase was diluted 4-fold with the kinase reaction buffer to a final concentration (JAK1: 80 nM, JAK2/JAK3/Tyk2: 4 nM). 4×substrate solution: ULight™-JAK (Tyr1023) substrate was diluted with the kinase reaction buffer to 200 nM (final concentration: 50 nM). 4× ATP solution: ATP was diluted 4-fold with the kinase reaction buffer to a final concentration (JAK1: 160 μM, JAK2/JAK3/Tyk2: 40 μM). 4× test compound solution: The test compound was dissolved with DMSO to prepare 10 mM stock solutions, and diluted 3-fold serially to required concentrations, 10 concentrations were set for each compound, and final concentrations of the test compound ranged from 10 μM to 0.5 nM. 4× enzyme reaction stop solution: 1× test buffer was used dissolve EDTA to 40 mM (final concentration of EDTA: 10 mM). 4× test antibody solution: Eu-labeled test antibody (anti-phosphotyrosine (PT66)) was diluted with 1× test buffer to 8 nM (final concentration of antibody: 2 nM). […] After incubation of the antibody, a signal value of each well was measured via Envision plate reader. […]

JAK2 = JAK2 (Homo sapiens, UniProt O60674); test: Enzyme activity inhibition of JAK kinases (ULight-JAK substrate, Eu-antibody): JAK2; conditions: JAK2 1 nM, ATP 10 μM, 1 hour reaction at room temperature; read-out: JAK2 half-maximum inhibitory concentration
Sequence of JAK2 (O60674 whole entry): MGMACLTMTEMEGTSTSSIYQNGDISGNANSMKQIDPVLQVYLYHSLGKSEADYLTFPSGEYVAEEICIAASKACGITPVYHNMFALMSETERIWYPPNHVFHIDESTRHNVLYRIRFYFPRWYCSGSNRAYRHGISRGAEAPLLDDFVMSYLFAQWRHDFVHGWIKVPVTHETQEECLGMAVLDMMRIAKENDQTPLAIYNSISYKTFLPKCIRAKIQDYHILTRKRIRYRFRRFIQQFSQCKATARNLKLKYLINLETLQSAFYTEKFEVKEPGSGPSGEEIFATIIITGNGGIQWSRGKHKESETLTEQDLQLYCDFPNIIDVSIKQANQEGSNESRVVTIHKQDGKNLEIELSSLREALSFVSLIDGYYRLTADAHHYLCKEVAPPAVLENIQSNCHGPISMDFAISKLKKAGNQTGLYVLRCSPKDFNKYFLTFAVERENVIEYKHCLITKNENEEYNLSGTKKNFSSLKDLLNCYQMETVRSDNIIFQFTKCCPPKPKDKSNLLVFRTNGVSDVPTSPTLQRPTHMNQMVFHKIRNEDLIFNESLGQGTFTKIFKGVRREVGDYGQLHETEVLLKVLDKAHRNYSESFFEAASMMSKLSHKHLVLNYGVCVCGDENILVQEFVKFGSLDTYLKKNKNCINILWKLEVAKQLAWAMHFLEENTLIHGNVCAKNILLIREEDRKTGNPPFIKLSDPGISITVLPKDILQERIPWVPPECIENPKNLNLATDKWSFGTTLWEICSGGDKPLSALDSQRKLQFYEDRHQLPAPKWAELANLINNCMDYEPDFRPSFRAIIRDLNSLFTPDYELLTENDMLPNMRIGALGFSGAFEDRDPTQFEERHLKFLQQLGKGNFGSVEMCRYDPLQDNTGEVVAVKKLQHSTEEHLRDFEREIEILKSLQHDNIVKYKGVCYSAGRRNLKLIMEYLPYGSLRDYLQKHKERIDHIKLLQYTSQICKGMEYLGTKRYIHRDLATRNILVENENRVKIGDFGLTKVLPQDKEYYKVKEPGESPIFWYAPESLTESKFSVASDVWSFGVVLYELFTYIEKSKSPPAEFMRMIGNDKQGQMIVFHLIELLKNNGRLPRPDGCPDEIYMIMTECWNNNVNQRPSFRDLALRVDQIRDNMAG
Experimental: as §1

JAK1 = JAK1 (Homo sapiens, UniProt P23458); test: Enzyme activity inhibition of JAK kinases (ULight-JAK substrate, Eu-antibody): JAK1; conditions: JAK1 20 nM, ATP 40 μM, 2 hours reaction at room temperature; read-out: JAK1 half-maximum inhibitory concentration
Sequence of JAK1 (P23458 whole entry): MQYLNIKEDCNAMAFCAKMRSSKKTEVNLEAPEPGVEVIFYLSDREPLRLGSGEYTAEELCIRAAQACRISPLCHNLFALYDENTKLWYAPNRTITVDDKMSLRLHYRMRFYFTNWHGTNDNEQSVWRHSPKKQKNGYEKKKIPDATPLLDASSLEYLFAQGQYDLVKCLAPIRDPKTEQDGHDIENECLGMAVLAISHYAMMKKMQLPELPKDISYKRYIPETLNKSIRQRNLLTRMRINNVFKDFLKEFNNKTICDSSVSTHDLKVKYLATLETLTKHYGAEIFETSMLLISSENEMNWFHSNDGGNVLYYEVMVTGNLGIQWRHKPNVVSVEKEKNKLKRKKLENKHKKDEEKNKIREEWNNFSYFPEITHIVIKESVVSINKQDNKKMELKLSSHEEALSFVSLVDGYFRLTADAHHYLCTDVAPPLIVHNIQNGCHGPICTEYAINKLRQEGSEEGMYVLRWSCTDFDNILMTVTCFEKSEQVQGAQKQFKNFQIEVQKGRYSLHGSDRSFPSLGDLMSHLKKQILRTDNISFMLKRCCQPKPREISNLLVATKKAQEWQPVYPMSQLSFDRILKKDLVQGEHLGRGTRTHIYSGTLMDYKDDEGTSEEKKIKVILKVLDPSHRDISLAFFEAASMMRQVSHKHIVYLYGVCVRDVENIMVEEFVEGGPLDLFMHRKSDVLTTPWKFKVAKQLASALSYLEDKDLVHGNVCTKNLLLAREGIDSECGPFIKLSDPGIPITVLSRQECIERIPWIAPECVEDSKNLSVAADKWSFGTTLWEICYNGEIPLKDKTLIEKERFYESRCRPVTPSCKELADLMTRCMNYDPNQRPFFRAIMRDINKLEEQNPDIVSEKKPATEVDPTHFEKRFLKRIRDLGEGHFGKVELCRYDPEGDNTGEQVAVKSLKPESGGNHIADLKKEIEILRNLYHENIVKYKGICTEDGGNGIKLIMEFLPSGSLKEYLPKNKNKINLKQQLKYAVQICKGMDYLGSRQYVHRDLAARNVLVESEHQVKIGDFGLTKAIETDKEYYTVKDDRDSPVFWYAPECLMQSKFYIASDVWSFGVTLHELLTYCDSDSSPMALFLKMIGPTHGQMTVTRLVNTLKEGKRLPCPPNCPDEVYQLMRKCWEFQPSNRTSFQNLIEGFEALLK
Experimental: as §1

Sequence of Tyk2 (P29597 whole entry): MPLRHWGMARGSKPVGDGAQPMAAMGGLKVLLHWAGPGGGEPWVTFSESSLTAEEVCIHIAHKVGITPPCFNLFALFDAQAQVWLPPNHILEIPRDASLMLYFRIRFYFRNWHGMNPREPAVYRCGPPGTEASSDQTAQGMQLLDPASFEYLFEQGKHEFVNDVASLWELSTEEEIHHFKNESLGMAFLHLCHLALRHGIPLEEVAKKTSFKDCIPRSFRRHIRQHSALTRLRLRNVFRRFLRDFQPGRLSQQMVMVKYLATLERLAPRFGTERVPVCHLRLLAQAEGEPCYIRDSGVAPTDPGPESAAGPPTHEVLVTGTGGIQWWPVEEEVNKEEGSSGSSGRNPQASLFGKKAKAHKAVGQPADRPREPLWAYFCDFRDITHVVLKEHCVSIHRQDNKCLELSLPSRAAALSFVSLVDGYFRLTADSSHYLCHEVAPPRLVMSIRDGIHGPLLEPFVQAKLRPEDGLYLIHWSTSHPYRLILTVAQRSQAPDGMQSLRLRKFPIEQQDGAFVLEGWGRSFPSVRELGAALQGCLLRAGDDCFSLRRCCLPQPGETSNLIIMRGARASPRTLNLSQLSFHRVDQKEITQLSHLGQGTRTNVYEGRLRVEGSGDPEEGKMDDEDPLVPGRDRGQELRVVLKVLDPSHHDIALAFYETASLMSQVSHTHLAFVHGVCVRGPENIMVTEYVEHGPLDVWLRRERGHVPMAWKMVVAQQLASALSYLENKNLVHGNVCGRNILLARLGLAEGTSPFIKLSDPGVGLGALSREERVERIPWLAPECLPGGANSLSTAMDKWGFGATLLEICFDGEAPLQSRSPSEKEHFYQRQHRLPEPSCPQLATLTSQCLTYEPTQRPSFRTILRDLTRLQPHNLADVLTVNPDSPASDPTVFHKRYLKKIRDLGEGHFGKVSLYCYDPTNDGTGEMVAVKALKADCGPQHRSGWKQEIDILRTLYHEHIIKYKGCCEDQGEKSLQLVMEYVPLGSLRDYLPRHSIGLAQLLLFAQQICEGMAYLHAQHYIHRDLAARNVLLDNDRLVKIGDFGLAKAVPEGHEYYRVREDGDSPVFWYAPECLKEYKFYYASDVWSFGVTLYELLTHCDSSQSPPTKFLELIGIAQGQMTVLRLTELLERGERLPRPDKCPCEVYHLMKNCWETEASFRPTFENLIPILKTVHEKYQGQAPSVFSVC

Row | pIC50 (Tyk2) | pIC50 (JAK2) | pIC50 (JAK1) | Structure (SMILES)
1 | 7.85 | 6.86 | 5.92 | Cn1cc(-c2cn3ncnc3c(-c3ccn([C@]4(CC#N)C[C@H](C#N)C4)c3)n2)cn1 [TDM-181021, (1s,3s)-3-(Cyanomethyl)-3-(3-(6-(1-Methyl-1H-Pyrazol-4-Yl)-[1,2,4]Triazolo[1,5-a]Pyrazin-8-Yl)-1H-Pyrrol-1-Yl)Cyclobutane-1-Carbonitrile]
2 | 6.95 | 5.62 | – | Cn1cc(-c2cn3ncnc3c(-c3ccn([C@]4(CC#N)C[C@@H](C#N)C4)c3)n2)cn1 [TDM-181020, (1r,3r)-3-(cyanomethyl)-3-(3-(6-(1-methyl-1H-pyrazol-4-yl)-[1,2,4]triazolo[1,5-a]pyrazin-8-yl)-1H-pyrrol-1-yl)cyclobutane-1-carbonitrile]
